Measurements published in patent US6461997B1, “Triazole sulfones having herbicidal activity” (Monsanto Technology LLC, priority 1999, dated 2002).

How the values were obtained:
[1] = tested on: PANMI (wild proso millet); experiment: Pre-emergence herbicidal activity, warm season; format: in vivo, Panicum miliaceum; settings: GR80 = lowest tested rate (300, 100, 30, 10 g/ha) with 80% or greater inhibition; approx. 14 days after treating; 30/21° C.
Summary of the method: (§1)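 Seeds were sown in sterilized, fertilized topsoil, covered, and the soil surface was sprayed with compound in 50:50 acetone/water at 300, 100, 30 and 10 g/ha. Pots were held at 30/21 °C day/night (PANMI, DIGSA) or 18/13 °C (ALOMY, POLCO). GR80 came from percent inhibition versus untreated plants at about 14 days.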

PANDI (fall panicum) = experiment: Pre-emergence herbicidal activity, warm season; format: in vivo, Panicum dichotomiflorum; settings: GR80 = lowest tested rate (300, 100, 30, 10 g/ha) with 80% or greater inhibition; approx. 14 days after treating; 30/21° C.
Summary of the method: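 GR80 values derive from percent inhibition relative to untreated plants, read roughly 14 days after sowing and pre-emergence soil-surface treatment (compound in 50:50 acetone/water; rates typically 10, 30, 100, 300 g/ha). Warm-season weeds grew at 30/21° C day/night, cool-season ones at 18/13° C; an asterisk marks activity without reaching 80% at the highest rate.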

POLCO (wild buckwheat) = experiment: Pre-emergence herbicidal activity, cool season; format: in vivo, Polygonum convolvulus; settings: lowest tested rate with 80% or greater inhibition; rates 300, 100, 30, 10 g/ha; about 14 days
Summary of the method: as §1

SOLNI (black nightshade) = experiment: Pre-plant incorporated (PPI) herbicidal activity, warm season; format: in vivo, Solanum nigrum; settings: for PPI activity (GR80) SOLNI: pre-plant incorporated, GR80 = lowest tested rate with 80% or greater inhibition, approx. 14 days after treating, 30/21° C.
Summary of the method: (§2)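 Seeds were sown on compacted topsoil and covered with soil that had been sprayed with compound in organic solvent and mixed through. Pots got 0.64 cm overhead irrigation, then greenhouse at 30/21 °C (warm-season species) or 18/13 °C (cool-season species) day/night. Percent inhibition versus untreated plants was scored about 14 days after planting.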

BROTE (downy brome) [2] = experiment: Pre-plant incorporated (PPI) herbicidal activity, cool season; format: in vivo, Bromus tectorum; settings: for PPI activity GR80, BROTE: pre-plant incorporated, lowest tested rate with 80% or greater inhibition, about 14 days
Summary of the method: as §2

POAAN (annual bluegrass) = experiment: as above; format: in vivo, Poa annua; settings: weed, PPI application
Summary of the method: as §2

BROTE (downy brome) [3] = experiment: Post-emergence herbicidal activity, cool season; format: in vivo, Bromus tectorum; settings: abraded plants sprayed at 300, 100, 30 and 10 g/ha; about 14 days after treatment
Summary of the method: (§3)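 Abraded seedling foliage receives a spray of test compound at four rates, 300 to 10 g/ha, in 50:50 acetone/water at 3,100 l/ha. After about 14 days in an 18/13° C. day/night greenhouse, inhibition is scored against abraded untreated controls and expressed as GR80.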

[4] = tested on: AGSST (creeping bentgrass); experiment: Post-emergence herbicidal activity, cool season; format: in vivo, Agrostis stolonifera; settings: abraded plants sprayed at 300, 100, 30 and 10 g/ha; about 14 days after treatment
Summary of the method: as §3

## C=CCC(F)(F)S(=O)(=O)c1ncn(C(=O)N(CC)CC)n1 [Example 17, 1-(N,N-diethylcarbamoyl)-3-[(1,1-difluoro-3-butenyl)sulfonyl]-1,2,4-triazole]
[1]
  Pre-emergence activity (GR80) PANMI: 100 g/ha
PANDI (fall panicum)
  Pre-emergence activity (GR80) PANDI: 100 g/ha
POLCO (wild buckwheat)
  Pre-emergence activity GR80, POLCO: 100 g/ha
SOLNI (black nightshade); Solanum nigrum, PPI application, 10 g/ha, read-out: Percent inhibition SOLNI
  inhibition at 10 g/ha: 0%
SOLNI (black nightshade); Solanum nigrum, PPI application, 30 g/ha, read-out: Percent inhibition SOLNI
  inhibition at 30 g/ha: 0%
SOLNI (black nightshade); Solanum nigrum, PPI application, 100 g/ha, read-out: Percent inhibition SOLNI
  inhibition at 100 g/ha: 80%
SOLNI (black nightshade); Solanum nigrum, PPI application, 300 g/ha, read-out: Percent inhibition SOLNI
  inhibition at 300 g/ha: 70%
SOLNI (black nightshade); Solanum nigrum, PPI application, 900 g/ha, read-out: Percent inhibition SOLNI
  inhibition at 900 g/ha: 100%
SOLNI (black nightshade)
  PPI activity (GR80) SOLNI: 30 g/ha
BROTE (downy brome) [2]; Bromus tectorum, weed, PPI application, 10 g/ha, read-out: Percent inhibition BROTE
  inhibition at 10 g/ha: 0%
BROTE (downy brome) [2]; Bromus tectorum, weed, PPI application, 30 g/ha, read-out: Percent inhibition BROTE
  inhibition at 30 g/ha: 0%
BROTE (downy brome) [2]; Bromus tectorum, weed, PPI application, 100 g/ha, read-out: Percent inhibition BROTE
  inhibition at 100 g/ha: 20%
BROTE (downy brome) [2]; Bromus tectorum, weed, PPI application, 300 g/ha, read-out: Percent inhibition BROTE
  inhibition at 300 g/ha: 30%
BROTE (downy brome) [2]; Bromus tectorum, weed, PPI application, 900 g/ha, read-out: Percent inhibition BROTE
  inhibition at 900 g/ha: 95%
BROTE (downy brome) [2]
  PPI activity GR80, BROTE: 100 g/ha
POAAN (annual bluegrass); Poa annua, 10 g/ha, read-out: Percent inhibition POAAN
  inhibition at 10 g/ha: 10%
POAAN (annual bluegrass); Poa annua, 30 g/ha, read-out: Percent inhibition POAAN
  inhibition at 30 g/ha: 60%
POAAN (annual bluegrass); Poa annua, 100 g/ha, read-out: Percent inhibition POAAN
  inhibition at 100 g/ha: 70%
POAAN (annual bluegrass); Poa annua, 300 g/ha, read-out: Percent inhibition POAAN
  inhibition at 300 g/ha: 95%
POAAN (annual bluegrass); Poa annua, 900 g/ha, read-out: Percent inhibition POAAN
  inhibition at 900 g/ha: 100%
BROTE (downy brome) [3]
  Post-emergence activity GR80, BROTE: [empty]
[4]
  Post-emergence activity GR80, AGSST: 300 g/ha

## C=C(CC(F)(F)S(=O)(=O)c1ncn(C(=O)N(CC)CC)n1)C[Si](C)(C)C [Example 20]
[1]
  Pre-emergence activity (GR80) PANMI: 100 g/ha
PANDI (fall panicum)
  Pre-emergence activity (GR80) PANDI: 300 g/ha
POLCO (wild buckwheat)
  Pre-emergence activity GR80, POLCO: * (activity observed, at least at highest rate, but <80% inhibition)
SOLNI (black nightshade); PPI application, 10 g/ha
  Percent inhibition SOLNI: 0%
SOLNI (black nightshade); PPI application, 30 g/ha
  Percent inhibition SOLNI: 0%
SOLNI (black nightshade); PPI application, 100 g/ha
  Percent inhibition SOLNI: 0%
SOLNI (black nightshade); PPI application, 300 g/ha
  Percent inhibition SOLNI: 30%
SOLNI (black nightshade); PPI application, 900 g/ha
  Percent inhibition SOLNI: 100%
SOLNI (black nightshade)
  PPI activity (GR80) SOLNI: 100 g/ha
BROTE (downy brome) [2]
  PPI activity GR80, BROTE: 300 g/ha
BROTE (downy brome) [2]; weed, PPI application, 10 g/ha
  Percent inhibition BROTE: 0%
BROTE (downy brome) [2]; weed, PPI application, 30 g/ha
  Percent inhibition BROTE: 0%
BROTE (downy brome) [2]; weed, PPI application, 100 g/ha
  Percent inhibition BROTE: 0%
BROTE (downy brome) [2]; weed, PPI application, 300 g/ha
  Percent inhibition BROTE: 40%
BROTE (downy brome) [2]; weed, PPI application, 900 g/ha
  Percent inhibition BROTE: 50%
POAAN (annual bluegrass); 10 g/ha
  Percent inhibition POAAN: 0%
POAAN (annual bluegrass); 30 g/ha
  Percent inhibition POAAN: 30%
POAAN (annual bluegrass); 100 g/ha
  Percent inhibition POAAN: 60%
POAAN (annual bluegrass); 300 g/ha
  Percent inhibition POAAN: 90%
POAAN (annual bluegrass); 900 g/ha
  Percent inhibition POAAN: 99%
BROTE (downy brome) [3]
  Post-emergence activity GR80, BROTE: [empty]
[4]
  Post-emergence activity GR80, AGSST: [empty]
